Assay [1] deals with HCV genotype 1b (Con1) replicon in HUH-7 cells. Put plainly: HCV replicon luciferase reporter assay, genotype 1b. In kind it is cell-based. As to conditions: Hepatitis C virus, Huh-7, 72 h, HCV genotype 1b replicon luciferase assay, 3 days incubation, range class, read-out: LE_1b (EC50, range). Put shortly: (§1)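 Replicon inhibition for both genotypes was measured as Renilla luciferase signal (EnduRen, 7.5 μM final, 2 h) after 3-day, 37° C exposure of replicon-bearing HUH-7 cells in 4% FCS DMEM, 0.5% DMSO. The 1b construct carries S1179I; the 1a H77 construct carries P1496L and S2204I. Twenty-point, 3-fold dilutions were fitted four-parametrically for EC50, and CC50 was taken from multiplexed Cell Titer-Blue.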

Assay [2] has as its system HCV genotype 1a (H77 strain) replicon in HUH-7 cells. Put plainly: HCV replicon luciferase reporter assay, genotype 1a. It counts as cell-based. The following applies: Hepatitis C virus, Huh-7, 72 h, HCV genotype 1a replicon luciferase assay, 3 days incubation, range class, read-out: LE_1a (EC50, range). Put shortly:
as §1
A general note: A replicon is a self-replicating genome or part of one, used to study replication in cells.

Usually EC50 stands for the concentration giving half of the maximal effect. `COc1ccc2c(O[C@@H]3C[C@H]4C(=O)N[C@]5(C(=O)NS(=O)(=O)C6(CF)CC6)C[C@H]5/C=C\CC[C@H](C)C[C@@H](C)[C@H](NC(=O)OC(C)(C)C)C(=O)N4C3)nc(Cl)cc2c1` [Compound 1162, tert-butyl ((2R,6S,7R,9S,13aS,14aR,16aS,Z)-2-((3-chloro-6-methoxyisoquinolin-1-yl)oxy)-14a-(((1-(fluoromethyl)cyclopropyl)sulfonyl)carbamoyl)-7,9-dimethyl-5,16-dioxo-1,2,3,5,6,7,8,9,10,11,13a,14,14a,15,16,16a-hexadecahydrocyclopropa[e]pyrrolo[1,2-a][1,4]diazacyclopentadecin-6-yl)carbamate]: the EC50 in assay [1] and in assay [2] was 4.82 to 103 nM throughout.

Take `COc1ccc2c(O[C@@H]3C[C@H]4C(=O)N[C@]5(C(=O)NS(=O)(=O)C6(CF)CC6)C[C@H]5/C=C\CC[C@@H](C)C[C@@H](C)[C@H](NC(=O)OC(C)(C)C)C(=O)N4C3)nc(Cl)cc2c1` [Compound 1163, tert-butyl ((2R,6S,7R,9R,13aS,14aR,16aS,Z)-2-((3-chloro-6-methoxyisoquinolin-1-yl)oxy)-14a-(((1-(fluoromethyl)cyclopropyl)sulfonyl)carbamoyl)-7,9-dimethyl-5,16-dioxo-1,2,3,5,6,7,8,9,10,11,13a,14,14a,15,16,16a-hexadecahydrocyclopropa[e]pyrrolo[1,2-a][1,4]diazacyclopentadecin-6-yl)carbamate]: the EC50 in assay [1] and in assay [2] was less than 5.46 nM each time.

In the case of `COc1ccc2c(O[C@@H]3C[C@H]4C(=O)N[C@]5(C(=O)NS(=O)(=O)C6(CF)CC6)C[C@H]5/C=C\CC[C@H](C)C[C@@H](C)[C@H](NC(=O)OC(C)(C)C(F)(F)F)C(=O)N4C3)nc(Cl)cc2c1` [Compound 1164, 1,1,1-trifluoro-2-methylpropan-2-yl((2R,6S,7R,9S,13aS,14aR,16aS,Z)-2-((3-chloro-6-methoxyisoquinolin-1-yl)oxy)-14a-(((1-(fluoromethyl)cyclopropyl)sulfonyl)carbamoyl)-7,9-dimethyl-5,16-dioxo-1,2,3,5,6,7,8,9,10,11,13a,14,14a,15,16,16a-hexadecahydrocyclopropa[e]pyrrolo[1,2-a][1,4]diazacyclopentadecin-6-yl)carbamate], the half-maximal effective concentration (EC50) in assay [1] and in assay [2] was 4.82 to 103 nM each time.

Consider `COc1ccc2c(O[C@@H]3C[C@H]4C(=O)N[C@]5(C(=O)NS(=O)(=O)C6(CF)CC6)C[C@H]5/C=C\CC[C@@H](C)C[C@@H](C)[C@H](NC(=O)OC(C)(C)C(F)(F)F)C(=O)N4C3)nc(Cl)cc2c1` [Compound 1165, 1,1,1-trifluoro-2-methylpropan-2-yl((2R,6S,7R,9R,13aS,14aR,16aS,Z)-2-((3-chloro-6-methoxyisoquinolin-1-yl)oxy)-14a-(((1-(fluoromethyl)cyclopropyl)sulfonyl)carbamoyl)-7,9-dimethyl-5,16-dioxo-1,2,3,5,6,7,8,9,10,11,13a,14,14a,15,16,16a-hexadecahydrocyclopropa[e]pyrrolo[1,2-a][1,4]diazacyclopentadecin-6-yl)carbamate], for which the EC50 in assay [1] and in assay [2] was less than 5.46 nM in each case.

Take `COc1ccc2c(O[C@@H]3C[C@H]4C(=O)N[C@]5(C(=O)NS(=O)(=O)C6(CF)CC6)C[C@H]5/C=C\CC[C@H](C)C[C@@H](C)[C@H](NC(=O)OC(C)(C)C(C)(F)F)C(=O)N4C3)ncc(C(F)(F)F)c2c1` [Compound 1166, 3,3-difluoro-2-methylbutan-2-yl((2R,6S,7R,9S,13aS,14aR,16aS,Z)-14a-(((1-(fluoromethyl)cyclopropyl)sulfonyl)carbamoyl)-2-((6-methoxy-4-(trifluoromethyl)isoquinolin-1-yl)oxy)-7,9-dimethyl-5,16-dioxo-1,2,3,5,6,7,8,9,10,11,13a,14,14a,15,16,16a-hexadecahydrocyclopropa[e]pyrrolo[1,2-a][1,4]diazacyclopentadecin-6-yl)carbamate]: the concentration for a half-maximal effect (EC50) in assay [1] and in assay [2] was 4.82 to 103 nM in each case.

In the case of `COc1ccc2c(O[C@@H]3C[C@H]4C(=O)N[C@]5(C(=O)NS(=O)(=O)C6(CF)CC6)C[C@H]5/C=C\CC[C@@H](C)C[C@@H](C)[C@H](NC(=O)OC(C)(C)C(C)(F)F)C(=O)N4C3)ncc(C(F)(F)F)c2c1` [Compound 1167, 3,3-difluoro-2-methylbutan-2-yl((2R,6S,7R,9R,13aS,14aR,16aS,Z)-14a-(((1-(fluoromethyl)cyclopropyl)sulfonyl)carbamoyl)-2-((6-methoxy-4-(trifluoromethyl)isoquinolin-1-yl)oxy)-7,9-dimethyl-5,16-dioxo-1,2,3,5,6,7,8,9,10,11,13a,14,14a,15,16,16a-hexadecahydrocyclopropa[e]pyrrolo[1,2-a][1,4]diazacyclopentadecin-6-yl)carbamate], the EC50 in assay [1] and in assay [2] was less than 5.46 nM throughout.

As to `COc1ccc2c(O[C@@H]3C[C@H]4C(=O)N[C@]5(C(=O)NS(=O)(=O)C6(CF)CC6)C[C@H]5/C=C\CC[C@H](C)C[C@@H](C)[C@H](NC(=O)OC(C)(C)C(F)(F)F)C(=O)N4C3)nc(C(F)(F)F)cc2c1` [Compound 1168, 1,1,1-trifluoro-2-methylpropan-2-yl((2R,6S,7R,9S,13aS,14aR,16aS,Z)-14a-(((1-(fluoromethyl)cyclopropyl)sulfonyl)carbamoyl)-2-((6-methoxy-3-(trifluoromethyl)isoquinolin-1-yl)oxy)-7,9-dimethyl-5,16-dioxo-1,2,3,5,6,7,8,9,10,11,13a,14,14a,15,16,16a-hexadecahydrocyclopropa[e]pyrrolo[1,2-a][1,4]diazacyclopentadecin-6-yl)carbamate], the concentration for a half-maximal effect (EC50) in assay [1] and in assay [2] was 4.82 to 103 nM in each case.

Regarding `COc1ccc2c(O[C@@H]3C[C@H]4C(=O)N[C@]5(C(=O)NS(=O)(=O)C6(CF)CC6)C[C@H]5/C=C\CC[C@@H](C)C[C@@H](C)[C@H](NC(=O)OC(C)(C)C(F)(F)F)C(=O)N4C3)nc(C(F)(F)F)cc2c1` [Compound 1169, 1,1,1-trifluoro-2-methylpropan-2-yl((2R,6S,7R,9R,13aS,14aR,16aS,Z)-14a-(((1-(fluoromethyl)cyclopropyl)sulfonyl)carbamoyl)-2-((6-methoxy-3-(trifluoromethyl)isoquinolin-1-yl)oxy)-7,9-dimethyl-5,16-dioxo-1,2,3,5,6,7,8,9,10,11,13a,14,14a,15,16,16a-hexadecahydrocyclopropa[e]pyrrolo[1,2-a][1,4]diazacyclopentadecin-6-yl)carbamate], the concentration giving a half-maximal response (EC50) in assay [1] and in assay [2] was less than 5.46 nM in each case.

For the molecule `COc1ccc2c(O[C@@H]3C[C@H]4C(=O)N[C@]5(C(=O)NS(=O)(=O)C6(CF)CC6)C[C@H]5/C=C\CC[C@H](C)C[C@@H](C)[C@H](NC(=O)OC(C)(C)C(C)(F)F)C(=O)N4C3)nc(C(F)(F)F)cc2c1` [Compound 1170, 3,3-difluoro-2-methylbutan-2-yl((2R,6S,7R,9S,13aS,14aR,16aS,Z)-14a-(((1-(fluoromethyl)cyclopropyl)sulfonyl)carbamoyl)-2-((6-methoxy-3-(trifluoromethyl)isoquinolin-1-yl)oxy)-7,9-dimethyl-5,16-dioxo-1,2,3,5,6,7,8,9,10,11,13a,14,14a,15,16,16a-hexadecahydrocyclopropa[e]pyrrolo[1,2-a][1,4]diazacyclopentadecin-6-yl)carbamate], the EC50 in assay [1] and in assay [2] was 4.82 to 103 nM throughout.

For `COc1ccc2c(O[C@@H]3C[C@H]4C(=O)N[C@]5(C(=O)NS(=O)(=O)C6(CF)CC6)C[C@H]5/C=C\CC[C@@H](C)C[C@@H](C)[C@H](NC(=O)OC(C)(C)C(C)(F)F)C(=O)N4C3)nc(C(F)(F)F)cc2c1` [Compound 1171, 3,3-difluoro-2-methylbutan-2-yl((2R,6S,7R,9R,13aS,14aR,16aS,Z)-14a-(((1-(fluoromethyl)cyclopropyl)sulfonyl)carbamoyl)-2-((6-methoxy-3-(trifluoromethyl)isoquinolin-1-yl)oxy)-7,9-dimethyl-5,16-dioxo-1,2,3,5,6,7,8,9,10,11,13a,14,14a,15,16,16a-hexadecahydrocyclopropa[e]pyrrolo[1,2-a][1,4]diazacyclopentadecin-6-yl)carbamate], the EC50 in assay [1] and in assay [2] was less than 5.46 nM throughout.

In the case of `COc1ccc2c(O[C@@H]3C[C@H]4C(=O)N[C@]5(C(=O)NS(=O)(=O)C6(CF)CC6)C[C@H]5/C=C\CC[C@H](C)C[C@@H](C)[C@H](NC(=O)OC5(C(F)(F)F)CCCOC5)C(=O)N4C3)nc(C(F)(F)F)cc2c1` (stereo partly drawn) [Compound 1172, 3-(trifluoromethyl)tetrahydro-2H-pyran-3-yl((2R,6S,7R,9S,13aS,14aR,16aS,Z)-14a-(((1-(fluoromethyl)cyclopropyl)sulfonyl)carbamoyl)-2-((6-methoxy-3-(trifluoromethyl)isoquinolin-1-yl)oxy)-7,9-dimethyl-5,16-dioxo-1,2,3,5,6,7,8,9,10,11,13a,14,14a,15,16,16a-hexadecahydrocyclopropa[e]pyrrolo[1,2-a][1,4]diazacyclopentadecin-6-yl)carbamate], the EC50 in assay [1] was 4.82 to 103 nM; in assay [2], greater than 87.4 nM.

On to `COc1ccc2c(O[C@@H]3C[C@H]4C(=O)N[C@]5(C(=O)NS(=O)(=O)C6(CF)CC6)C[C@H]5/C=C\CC[C@@H](C)C[C@@H](C)[C@H](NC(=O)OC5(C(F)(F)F)CCCOC5)C(=O)N4C3)nc(C(F)(F)F)cc2c1` (stereo partly drawn) [Compound 1173, 3-(trifluoromethyl)tetrahydro-2H-pyran-3-yl((2R,6S,7R,9R,13aS,14aR,16aS,Z)-14a-(((1-(fluoromethyl)cyclopropyl)sulfonyl)carbamoyl)-2-((6-methoxy-3-(trifluoromethyl)isoquinolin-1-yl)oxy)-7,9-dimethyl-5,16-dioxo-1,2,3,5,6,7,8,9,10,11,13a,14,14a,15,16,16a-hexadecahydrocyclopropa[e]pyrrolo[1,2-a][1,4]diazacyclopentadecin-6-yl)carbamate], for which the EC50 in assay [1] and in assay [2] was less than 5.46 nM each time.

The values above are taken from patent publication US9499550B2 (BRISTOL-MYERS SQUIBB COMPANY, priority 2012, dated 2016).
